Test results published in patent publication EP4424303A1, “LENVATINIB COMPOSITION WITH IMPROVED BIOAVAILABILITY” (STADA ARZNEIMITTEL AG, priority 2023, dated 2024).
Where a name gives a salt, the structure may show the parent alone.

Test: Saturation (equilibrium) solubility by shake-flask technique
Assay type: physicochemical
Conditions: thermodynamic from solid, 37 °C ± 1 °C
Protocol: The equilibrium solubility of Lenvatinib mesylate in different dissolution media at 37 °C ± 1 °C was measured by shake-flask technique. The dissolution media were prepared according to USP. The pH for each test solution was measured after the addition of the drug substance and at the end of the equilibrium solubility study.
1. Table 1: saturation solubility of Lenvatinib mesylate depending on pH

COc1cc2nccc(Oc3ccc(NC(=O)NC4CC4)c(Cl)c3)c2cc1C(N)=O [Lenvatinib mesylate, 4-[3-chloro-4-(cyclopropylaminocarbonyl)aminophenoxy]-7-methoxy-6-quinolinecarboxamide]
solubility (USP dissolution medium pH 2.0, simulated gastric fluid, pH 2.0, Initial pH 2.0, Final pH 1.88): 2620 µg/mL | solubility (USP dissolution medium pH 4.5, aqueous buffer, pH 4.5, Initial pH 4.52, Final pH 4.38): 13 µg/mL | solubility (USP dissolution medium pH 5.5, aqueous buffer, pH 5.5, Initial pH 5.49, Final pH 5.25): 3 µg/mL | solubility (USP dissolution medium pH 6.8, aqueous buffer, pH 6.8, Initial pH 6.82, Final pH 6.68): 1 µg/mL | solubility (simulated gastric fluid, 0.1N HCl, Initial pH 1.1, Final pH 1.23): 1830 µg/mL
